Columns and labels:
adenosine A2 receptor = biological target: T1, adenosine A2 receptor (Rattus norvegicus, UniProt P30543); test: Adenosine Receptor Binding - A2 Receptor Affinity (RBA2); conditions: [3H]NECA, rat striatal membranes; read-out: RBA-2
T1 construct: 5 mg original tissue weight of rat weight of rat striatal membranes; tissue Pel-Freez (Rogers, Arkansas); host or cells: rat striatum, membrane preparation
Experimental: Adenosine Receptor Binding - A2 Receptor Affinity (RBA2)
Brains from 200-500 g mixed sex Sprague-Dawley rats were purchased from Pel-Freez (Rogers, Arkansas). […] Brains were thawed and then kept on ice while the striata were dissected out. […] When needed, tissue was thawed at room temperature, disrupted in a Polytron, and kept on ice until used.
All incubations were for 60 minutes at 25°C in 12x75 mm glass tubes containing 1 ml Tris with 5 mg original tissue weight of rat weight of rat striatal membranes, 4 nM [^3H]-N-ethyl adenosine-5'-carboxamide ([^3H]NECA), 50 nM N^6-cyclopentyladenosine (to eliminate A1 receptor binding), 10 mM MgCl2, 0.1 units/ml of adenosine deaminase and 1% dimethylsulfoxide. N^6-Cyclopentyladenosine was dissolved at 10 mM in 0.02 N HCI and diluted in Tris. […] Test compounds were dissolved at 10 mM in dimethylsulfoxide on the same day as the experiment, and diluted in dimethylsulfoxide to 100x the final incubation concentration. […] [^3H]NECA was diluted to 40 nM in Tris. The membrane suspension (5 mg/0.79 ml) contained sufficient MgC12 and adenosine deaminase to give 10 mM and 0.1 units/ml, respectively, final concentration in the incubation. For test compounds with lC50 values less than 1 µM, the order of additions was test compound (10 µl), N^6-cyclopentyladenosine (100 µl), [^3H]NECA (100 µl), and membranes (0.79 ml). […] After all additions, the rack of tubes was vortexed, and the tubes were then incubated for 60 min at 25°C in a shaking water bath. The rack of tubes was vortexed an additional time halfway through the incubation.
incubations were terminated by filtration through 2.4 cm GF/B filters under reduced pressure. Each tube was filtered as follows: the contents of the tube were poured onto the filter, 4 ml of ice-cold Tris were added to the tube and the contents poured onto the filter, and the filter was washed twice with 4 ml of ice-cold Tris. The filtration was complete in about twelve seconds.
Nonspecific binding was defined as binding in the presence of 100 µM N^6-cyclopentyladenosine, and specific binding was defined as total binding minus nonspecific binding. The IC50 was calculated by weighed nonlinear least squares curve-fitting to the mass-action equation. [formula] • where Y is cpm bound • T is cpm total binding without drug • S is cpm specific binding without drug • D is the concentration of drug • and K is the IC50 of the drug Weighting factors were calculated under the assumption that the standard deviation was proportional to the predicted value of Y. Nonspecific binding was treated as a very large (infinite) concentration of drug in the computer analysis.

Swiss-Webster male mice [1] = test: Mouse Activity and Screen Test Procedure (MAST): screen test (ST); format: in vivo; conditions: one hour postinjection
Excerpt: The compounds of the invention are new chemical substances which are useful as pharmaceutical agents for the treatment of psychoses. The antipsychotic activity of representative compounds of the invention was established by the Mouse Activity and Screen Test Procedrue (MAST) described below.
Nine unfasted Swiss-Webster male mice weighing 20-30 g equally divided into three groups for each drug dose to be tested. That is, data for each dose level was generated by three separated groups of three mice each.
A minimum of three dose levels (10, 30, and 100 mg/kg) are tested for each drug. Treatments are administered intraperitoneally one hour prior to testing. All dosages are calculated as parent compound and given in volumes of 10 ml/kg. Compounds are dissolved or suspended in 0.2% Methocel. Control animals are injected with Methocel.
Testing: A two part testing procedure is started one hour postinjection. First, the screen test (ST) is performed (see Pharmac. Biochem. Behav. 6, 351-353, 1977). Briefly this test consists of placing mice on individual wire screens which are then rotated 180 degrees at the start of a 60 second observation period. The number of mice falling off the inverted screen is recorded.
Data: The data obtained from the screen test are expressed as percent of mice falling off the screen. Data derived from locomotor activity of drug treated mice are compared to the activity of vehicle treated animals and are expressed as percent inhibition of spontaneous locomotion. All percentages reported for inhibition of locomotion (LI) are based upon data accumulated for one hour. Both phases of testing are graded: A=60-100%; G=31-59%; and N=0-30%. An overall dose rating is obtained by the following criteria:
LAD refers to the lowest dose at which an A rating is achieved. […] Utilizing this procedure, an overall dose rating of A was obtained for the noted compound at the indicated dose. The compounds are identified in the Examples.

Swiss-Webster male mice [2] = test: Mouse Activity and Screen Test Procedure (MAST): locomotor activity in actophotometer; format: in vivo; conditions: one hour prior to testing
Experimental: Nine unfasted Swiss-Webster male mice weighing 20-30 g equally divided into three groups for each drug dose to be tested. That is, data for each dose level was generated by three separated groups of three mice each. A minimum of three dose levels (10, 30, and 100 mg/kg) are tested for each drug. Treatments are administered intraperitoneally one hour prior to testing. All dosages are calculated as parent compound and given in volumes of 10 ml/kg. […] Control animals are injected with Methocel. […] The actophotometer consists of a cylindrical chamber whose center is occupied by another cylinder which contains the illumination for six photocells located on the perimeter of the chamber. Six light-beam interruptions equal one count. […] Data: The data obtained from the screen test are expressed as percent of mice falling off the screen. Data derived from locomotor activity of drug treated mice are compared to the activity of vehicle treated animals and are expressed as percent inhibition of spontaneous locomotion. All percentages reported for inhibition of locomotion (LI) are based upon data accumulated for one hour. […] An overall dose rating is obtained by the following criteria: LAD refers to the lowest dose at which an A rating is achieved. […] The compounds are identified in the Examples.

T1 sequence (P30543 whole entry): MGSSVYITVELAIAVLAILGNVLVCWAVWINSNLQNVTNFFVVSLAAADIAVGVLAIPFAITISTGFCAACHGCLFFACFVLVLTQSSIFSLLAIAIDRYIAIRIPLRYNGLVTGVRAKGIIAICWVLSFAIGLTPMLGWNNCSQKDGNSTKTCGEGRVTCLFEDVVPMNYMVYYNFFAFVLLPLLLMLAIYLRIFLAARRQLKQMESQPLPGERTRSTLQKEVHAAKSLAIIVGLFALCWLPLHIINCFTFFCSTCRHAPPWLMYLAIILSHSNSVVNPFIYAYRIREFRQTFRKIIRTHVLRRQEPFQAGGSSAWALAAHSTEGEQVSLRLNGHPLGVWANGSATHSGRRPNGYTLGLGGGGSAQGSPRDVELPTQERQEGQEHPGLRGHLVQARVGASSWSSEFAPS

SMILES | IC50 (adenosine A2 receptor) [nM] | Screen test failure (Swiss-Webster male mice [1]; 1 mg/kg intraperitoneally) [%] | Screen test failure (Swiss-Webster male mice [1]; 3 mg/kg intraperitoneally) [%] | Screen test failure (Swiss-Webster male mice [1]; 10 mg/kg intraperitoneally) [%] | Screen test failure (Swiss-Webster male mice [1]; 0.3 mg/kg intraperitoneally) [%] | Screen test failure (Swiss-Webster male mice [1]; 30 mg/kg intraperitoneally) [%] | Screen test failure (Swiss-Webster male mice [1]; 100 mg/kg intraperitoneally) [%] | Screen test failure (Swiss-Webster male mice [1]; 0.1 mg/kg intraperitoneally) [%] | Screen test failure (Swiss-Webster male mice [1]; 9.0 mg/kg intraperitoneally) [%] | Screen test failure (Swiss-Webster male mice [1]; 0.03 mg/kg intraperitoneally) [%] | Inhibition of mouse locomotor activity (Swiss-Webster male mice [2]; 1 mg/kg intraperitoneally) [%] | Inhibition of mouse locomotor activity (Swiss-Webster male mice [2]; 3 mg/kg intraperitoneally) [%] | Inhibition of mouse locomotor activity (Swiss-Webster male mice [2]; 10 mg/kg intraperitoneally) [%] | Inhibition of mouse locomotor activity (Swiss-Webster male mice [2]; 0.3 mg/kg intraperitoneally) [%] | Inhibition of mouse locomotor activity (Swiss-Webster male mice [2]; 30 mg/kg intraperitoneally) [%] | Inhibition of mouse locomotor activity (Swiss-Webster male mice [2]; 100 mg/kg intraperitoneally) [%] | Inhibition of mouse locomotor activity (Swiss-Webster male mice [2]; 0.1 mg/kg intraperitoneally) [%] | Inhibition of mouse locomotor activity (Swiss-Webster male mice [2]; 9.0 mg/kg intraperitoneally) [%] | Inhibition of mouse locomotor activity (Swiss-Webster male mice [2]; 0.03 mg/kg intraperitoneally) [%]
COc1ccc2c(c1)C(Nc1ncnc3c1ncn3[C@@H]1O[C@H](CO)[C@@H](O)[C@H]1O)CCC2 (single isomer, unassigned) [Example 5, N6-[1-(7-Methoxy)-tetralinyl]-adenosine] | 918 | 0 | 11 | 11 |  |  |  |  |  |  | 39 | 82 | 91 |  |  |  |  |  | 
OC[C@H]1O[C@H](n2cnc3c(NC4CCCc5ccccc54)ncnc32)[C@H](O)[C@@H]1O (stereo partly drawn) [Example 3, (S)-N^6-[1-Tetralinyl]-adenosine] | 2030 | 22 | 0 | 0 | 0 | 11 |  | 11 |  |  | 30 | 69 | 95 | 34 | 96 |  | 40 |  | 
COc1ccc2c(c1)CCCC2Nc1ncnc2c1ncn2[C@@H]1O[C@H](CO)[C@@H](O)[C@H]1O (stereo partly drawn) [Example 6, N^6-[1-(6-Methoxy)-tetralinyl]-adenosine] | 4370 | 0 | 0 | 0 |  | 44 | 44 |  |  |  | 22 | 3 | 62 |  | 94 | 99 |  |  | 
COc1ccc2c(c1)C(Nc1ncnc3c1ncn3[C@H]1O[C@H](CO)[C@@H](O)[C@H]1O)CCC2 (stereo partly drawn) [Example 9, (S)-N^6-(7-methoxy-1-tetralinyl)-adenosine] | 50500 |  | 11 | 0 |  | 11 |  |  |  |  |  | −35 | −11 |  | −3 |  |  |  | 

Now those with a lower IC50 (adenosine A2 receptor), led by results:

IC50 (adenosine A2 receptor) [nM] | Screen test failure (Swiss-Webster male mice [1]; 1 mg/kg intraperitoneally) [%] | Screen test failure (Swiss-Webster male mice [1]; 3 mg/kg intraperitoneally) [%] | Screen test failure (Swiss-Webster male mice [1]; 10 mg/kg intraperitoneally) [%] | Screen test failure (Swiss-Webster male mice [1]; 0.3 mg/kg intraperitoneally) [%] | Screen test failure (Swiss-Webster male mice [1]; 30 mg/kg intraperitoneally) [%] | Screen test failure (Swiss-Webster male mice [1]; 100 mg/kg intraperitoneally) [%] | Screen test failure (Swiss-Webster male mice [1]; 0.1 mg/kg intraperitoneally) [%] | Screen test failure (Swiss-Webster male mice [1]; 9.0 mg/kg intraperitoneally) [%] | Screen test failure (Swiss-Webster male mice [1]; 0.03 mg/kg intraperitoneally) [%] | SMILES | Inhibition of mouse locomotor activity (Swiss-Webster male mice [2]; 1 mg/kg intraperitoneally) [%] | Inhibition of mouse locomotor activity (Swiss-Webster male mice [2]; 3 mg/kg intraperitoneally) [%] | Inhibition of mouse locomotor activity (Swiss-Webster male mice [2]; 10 mg/kg intraperitoneally) [%] | Inhibition of mouse locomotor activity (Swiss-Webster male mice [2]; 0.3 mg/kg intraperitoneally) [%] | Inhibition of mouse locomotor activity (Swiss-Webster male mice [2]; 30 mg/kg intraperitoneally) [%] | Inhibition of mouse locomotor activity (Swiss-Webster male mice [2]; 100 mg/kg intraperitoneally) [%] | Inhibition of mouse locomotor activity (Swiss-Webster male mice [2]; 0.1 mg/kg intraperitoneally) [%] | Inhibition of mouse locomotor activity (Swiss-Webster male mice [2]; 9.0 mg/kg intraperitoneally) [%] | Inhibition of mouse locomotor activity (Swiss-Webster male mice [2]; 0.03 mg/kg intraperitoneally) [%]
407 | 11 | 11 | 22 | 11 | 65 |  |  |  |  | COc1ccc2c(c1)C(Nc1ncnc3c1ncn3[C@@H]1O[C@H](CO)[C@@H](O)[C@H]1O)CCC2 (single isomer, unassigned) [Example 8] | 83 | 88 | 93 | 25 | 94 |  |  |  | 
476 | 0 | 0 | 22 |  | 22 | 99 |  |  |  | OC[C@H]1O[C@@H](n2cnc3c(NC4CCCc5ccccc54)ncnc32)C(O)[C@@H]1O (stereo in doubt) [Example 1, (R,S)-N^6-[1-Tetralinyl]-adenosine] | 86 | 93 | 98 |  | 97 | 99 |  |  | 
243 | 11 | 22 |  | 0 | 66 |  | 0 | 33 |  | OC[C@H]1O[C@@H](n2cnc3c(NC4CCCc5ccccc54)ncnc32)[C@H](O)[C@@H]1O (stereo partly drawn) [Example 2, (R)-N^6-[1-Tetralinyl]-adenosine] | 79 | 95 |  | 45 | 99 |  | 25 | 97 | 
524 |  |  | 77 | 11 | 88 | 77 | 0 |  | 0 | CC1CCc2ccccc2C1Nc1ncnc2c1ncn2[C@@H]1O[C@H](CO)[C@@H](O)[C@H]1O (stereo partly drawn) [Example 4, N^6-[1-(2-Methyl)-tetralinyl]-adenosine] |  |  | 97 | 70 | 99 | 99 | 1 |  | 3
324 | 0 | 11 | 22 | 0 | 66 |  |  |  |  | COc1cccc2c1CCCC2Nc1ncnc2c1ncn2[C@@H]1O[C@H](CO)[C@@H](O)[C@H]1O (stereo partly drawn) [Example 7, N^6-[5-Methoxy-1-aminotetralin]-adenosine] | 22 | 91 | 97 | 7 | 99 |  |  |  | 
217 | 22 | 22 | 44 | 11 | 66 |  |  |  |  | COc1cccc2c1CCC[C@@H]2Nc1ncnc2c1ncn2[C@@H]1O[C@H](CO)[C@@H](O)[C@H]1O [Example 10, (S)-N^6-[5-methoxy-1-aminotetralin]-adenosine] | 65 | 88 | 95 | −19 | 97 |  |  |  | 

Reference: EP0179667B1, “N6-substituted adenosines” (priority 1984, dated 1986)
